Results published in patent publication US20050019372A1, “Modified-fat nutritional products useful preventing or treating obesity” (priority 2001, published 2005).
Like-named read-outs stand apart in the source and are kept apart here.

Experiments:
3T3-L1 cells = assay: Fatty acid induced differentiation (cellular TG content, G3PD activity), no MDI; type: cell-based; settings: for G3PD / TG: basal medium with insulin 2.5 μg/ml, no MDI, means ± S.E.M., n=3; for Cell loss after extended fatty acid incubation: microscopy, corroborated by DNA analysis; for Time after incubation at which lipid droplets began to appear: undifferentiated cells, not treated with MDI
Procedure: Fatty acid induced differentiation. […] The 5:1 molar ratio of FFA/BSA promotes net transfer of FFA from BSA-binding sites to cells. No MDI treatment was applied to these cultures.
Measurement of total cellular DNA, TG and G3PD activity. […] G3PD was measured by following the disappearance of NADH during enzyme-catalysed dihydroxyacetone phosphate reduction under zero-order conditions.

3T3L1 fat cells = assay: TG storage and plasma membrane phospholipid fatty acid composition, oleate/linoleate with octanoate; type: cell-based
Procedure: This reduced the cellular TG storage from 41.5 to 27.0 μg/μgDNA. The fatty acid composition in the plasma membrane phospholipids (FIG. 15) was less drastically affected by exogenous fatty acids than that in the TG fraction (FIG. 14).

[1] = 6 h intravenous infusion of octanoic acid, cited from earlier work
3T3-L1 adipocytes [2] = assay: Partitioning of [1-14C]FFA between CO2 production and TG incorporation; type: cell-based; settings: for Exogenous fatty acid converted into CO2 / Exogenous fatty acid converted into TG: 60 min, 1 mM fatty acid in 0.2 mM BSA, means ± S.E.M., n=3
Procedure: Partitioning of [1-^14C]FFA between CO2production7 and TG incorporation. 3T3-L1 cells were prepared in T25 culture flasks. […] The incubation was terminated after 60 min. ^14CO2 released from fatty acid oxidation was collected and quantified using a published protocol. The cellular lipids were extracted and separated by TLC. The TG fraction was scraped off and dissolved in Ecosin-A solution for scintillation counting. […] Cellular DNA was measured in parallel cultures.

3T3-L1 adipocytes [3] = assay: 13C-NMR incorporation of [1-13C]FFA into cellular TG; type: cell-based
Procedure: Incubation with [1-^13C]FFA. […] At termination, cells were washed three times with an ice-cold solution (pH 7.4) containing sucrose (250 mM), Tris (10 mM) and 2-mercaptoethanol (1 mM), scraped into the above solution containing additional EDTA (0.2 mM) and homogenized. Aliquots of the homogenate were stored at −80° C. for DNA and TG analysis. Aliquots for glycerol-3-phosphate dehydrogenase (G3PD) analysis were centrifuged at 44000 g for 20 min and the supernatants were stored at −80° C. until analysis. The homogenates were then extracted for lipids for NMR studies as described previously.
Quantification of ^13C label incorporation into cellular TG from the NMR peak intensity. The ^13C-NMR spectra were obtained at 125 MHz on a Bruker DMX-500 spectrometer with a 5-mm triple resonance probe (Bilerica, Mass., U.S.A.). Other details have been described in our previous reports. The absolute intensities of ^13C═O signals were measured by reference to an internal standard. […] For cells incubated with [1-^13C]octanoate, the signals from direct incorporation of [1-^13C]octanoate were less intense than the C═O signals from unlabelled TG (FIG. 1B; signals from unlabelled saturated acyl chains overlapped those of esterified [1-^13C]octanoate, but were generally 30-40% of their unsaturated counterparts in control cultures). Therefore, the signal intensity from direct incorporation of [1-^13C]octanoate was obtained by subtracting the background signal from control. This may not be completely accurate when octanoate incorporation is very limited.

3T3-L1 fat cells = assay: Basal lipolysis and turnover of esterified fatty acids (glycerol release, NMR, GLC); type: cell-based; settings: for 8:0 acyl chains in cellular TG: means ± S.E.M.; for [1-13C]fatty acid remaining esterified in TG: NMR, ±S.E.M.
Procedure: Measurement of basal lipolysis. […] Control cultures were terminated at this time, and cells were homogenated for TG and DNA analysis. After aliquots were taken for these analyses, cellular lipids were extracted for NMR and GLC analysis. Parallel cultures were washed three times with PBS solution and incubated with serum-free DMEM containing 1% BSA, conditions that favour basal lipolysis. At the end of the incubation, media were aspirated and assayed for glycerol (Sigma procedure no. 337A [27]), and the cells were harvested for analysis as described above.
Quantification of ^13C label incorporation into cellular TG from the NMR peak intensity. The ^13C-NMR spectra were obtained at 125 MHz on a Bruker DMX-500 spectrometer with a 5-mm triple resonance probe (Bilerica, Mass., U.S.A.). Other details have been described in our previous reports. The absolute intensities of ^13C═O signals were measured by reference to an internal standard. […] Therefore, the signal intensity from direct incorporation of [1-^13C]octanoate was obtained by subtracting the background signal from control.
Methylation of TG and GLC analysis of fatty acyl composition. The lipid components of cell extracts were separated by TLC (hexane/ethyl ether/acetic acid, 70:30:1). Methylation was performed by incubation in BF3-methanol solution (14%, v/v, BF3 in methanol) at 60° C. for 30 min. The fatty acid methyl ester was extracted into a hexane solution. The hexane solution was dried with anhydrous sodium sulphate. To avoid the evaporation of methyl octanoate, the hexane solution was used directly for GLC study without further condensation. GLC analysis was performed on a Shimuzu 14A gas chromatograph with a Supelco SP™-2380 capillary column with an initial oven temperature of 150° C., final temperature of 240° C., heating rate of 4° C./min, injector temperature of 220° C. and detector temperature of 240° C. Carrier gas (He) was at 50 kPa, make-up carrier gas (He) at 100 kPa, hydrogen gas at 55 kPa and compressed air at 50 kPa. The sample was injected in 1-1.5 μl with splitting rate of 1:25.

[4] = replacement of 20% oleate by octanoate
[5] = After 96 h incubation with DMEM (1% BSA)
[6] = After 96 h incubation with DMEM (1% BSA), n=3
[7] = Before 96 h incubation with DMEM (1% BSA)
[8] = Before 96 h incubation with DMEM (1% BSA), n=3
[9] = after 96-h incubation with DMEM, n=3

SMILES: CCCCCCCC(=O)O [Octanoate, octanoate]
- G3PD (3T3-L1 cells; Day 6): 0.09 ± 0.01 nmol/min per μg of DNA
- TG (3T3-L1 cells; Day 6): 0.1 ± 0.02 μg/μg of DNA
- G3PD (3T3-L1 cells; Day 9): 0.2 ± 0.01 nmol/min per μg of DNA
- TG (3T3-L1 cells; Day 9): 0.6 ± 0.04 μg/μg of DNA
- Cell loss after extended fatty acid incubation (3T3-L1 cells): less significant
- Time after incubation at which lipid droplets began to appear (3T3-L1 cells): 6 days
- Cellular TG storage (3T3L1 fat cells; oleate/linoleate, without or with 20% (wt %) of oleate replaced by octanoate): 27.0 μg/μgDNA
- Decrease in MUFA in plasma membrane phospholipids (3T3L1 fat cells; [4]): ~15%
- Increase in PUFA in plasma membrane phospholipids (3T3L1 fat cells; [4]): ~20%
- Increase in SFA in plasma membrane phospholipids (3T3L1 fat cells; [4]): ~10%
- Octanoate recovered as CO2 ([1]; fasted rats): ≤ 90%
- Octanoate recovered as CO2 ([1]; fed rats): up to 82%
- Actual amount of CO2 produced from octanoate relative to exogenous oleate (3T3-L1 adipocytes [2]; 8 vs 18 CO2 per acyl chain): about 3 fold
- Exogenous fatty acid converted into CO2 (3T3-L1 adipocytes [2]): 8.4 ± 1.2 nmol/h per μg of DNA
- Exogenous fatty acid converted into TG (3T3-L1 adipocytes [2]): 0.9 ± 0.1 nmol/h per μg of DNA
- Peak intensity ratio TG(1,3)/TG(2) (3T3-L1 adipocytes [3]; 2.0 = random access to the three glycerol carbons): higher than 2.0
- Octanoate share of total acyl chains stored, molar scale (3T3-L1 adipocytes [3]; converted to a molar scale): 20%
- Amount partitioned into de novo synthesis of LCFA (3T3-L1 adipocytes [3]; detected by 13C-NMR): less than 16%
- Saturated octanoate incorporation, share of total fatty acids stored (3T3-L1 adipocytes [3]; fat cells): about 10%
- Time at which accumulation into TG reached a plateau (3T3-L1 adipocytes [3]; within a 24-h period): 7 h
- Absolute amount of octanoate remaining in TG, of original amount (3T3-L1 fat cells; 96 h, total TG content doubled): about 20%
- 14:0 acyl chains in cellular TG (3T3-L1 fat cells; [5]): 3.88 ± 0.21%
- 14:1 acyl chains in cellular TG (3T3-L1 fat cells; [5]): 5.78 ± 0.11%
- 15:0 acyl chains in cellular TG (3T3-L1 fat cells; [5]): 1.63 ± 0.17%
- 15:1 acyl chains in cellular TG (3T3-L1 fat cells; [5]): 1.41 ± 0.09%
- 16:0 acyl chains in cellular TG (3T3-L1 fat cells; [5]): 24.45 ± 0.03%
- 16:1 acyl chains in cellular TG (3T3-L1 fat cells; [5]): 47.64 ± 0.34%
- 17:0 acyl chains in cellular TG (3T3-L1 fat cells; [5]): 0.85 ± 0.096%
- 17:1 acyl chains in cellular TG (3T3-L1 fat cells; [5]): 4.73 ± 0.12%
- 18:0 acyl chains in cellular TG (3T3-L1 fat cells; [5]): 0.51 ± 0.16%
- 18:1 n9 acyl chains in cellular TG (3T3-L1 fat cells; [5]): 6.2 ± 0.29%
- 18:1 n11 acyl chains in cellular TG (3T3-L1 fat cells; [5]): 1.95 ± 0.13%
- 8:0 acyl chains in cellular TG (3T3-L1 fat cells; [6]): 0.99 ± 0.05%
- 14:0 acyl chains in cellular TG (3T3-L1 fat cells; [7]): 3.74 ± 0.04%
- 14:1 acyl chains in cellular TG (3T3-L1 fat cells; [7]): 5.56 ± 0.29%
- 15:0 acyl chains in cellular TG (3T3-L1 fat cells; [7]): 1.43 ± 0.14%
- 15:1 acyl chains in cellular TG (3T3-L1 fat cells; [7]): 1.4 ± 0.14%
- 16:0 acyl chains in cellular TG (3T3-L1 fat cells; [7]): 24.62 ± 0.35%
- 16:1 acyl chains in cellular TG (3T3-L1 fat cells; [7]): 38.61 ± 0.2%
- 17:0 acyl chains in cellular TG (3T3-L1 fat cells; [7]): 0.9 ± 0.03%
- 17:1 acyl chains in cellular TG (3T3-L1 fat cells; [7]): 3.89 ± 0.1%
- 18:0 acyl chains in cellular TG (3T3-L1 fat cells; [7]): 0.49 ± 0.02%
- 18:1 n9 acyl chains in cellular TG (3T3-L1 fat cells; [7]): 6.69 ± 0.09%
- 18:1 n11 acyl chains in cellular TG (3T3-L1 fat cells; [7]): 2.34 ± 0.05%
- 8:0 acyl chains in cellular TG (3T3-L1 fat cells; [8]): 10.33 ± 0.3%
- [1-13C]fatty acid remaining esterified in TG (3T3-L1 fat cells; [9]): About 21±1.2%
- Proportion of octanoate in total stored fatty acids (3T3-L1 fat cells; [9]): about 1±0.1%
- Octanoate incorporation, share of total acyl composition (3T3-L1 fat cells; before incubation with DMEM, n=3): 10±0.9%

SMILES: CCCCCCCC/C=C\CCCCCCCC(=O)O [Oleate, oleate, reference compound]
- G3PD (3T3-L1 cells; Day 6): 0.45 ± 0.02 nmol/min per μg of DNA
- TG (3T3-L1 cells; Day 6): 1.7 ± 0.2 μg/μg of DNA
- G3PD (3T3-L1 cells; Day 9): 1.7 ± 0.1 nmol/min per μg of DNA
- TG (3T3-L1 cells; Day 9): 5.1 ± 0.3 μg/μg of DNA
- Cell loss after extended fatty acid incubation (3T3-L1 cells): ~20%
- Oleate share of accumulated TG (3T3-L1 cells; oleate-treated cells): > 80%
- Time after incubation at which lipid droplets began to appear (3T3-L1 cells): 3 days
- Exogenous fatty acid converted into CO2 (3T3-L1 adipocytes [2]): 0.7 ± 0.1 nmol/h per μg of DNA
- Exogenous fatty acid converted into TG (3T3-L1 adipocytes [2]): 7.6 ± 0.8 nmol/h per μg of DNA
- 14:0 acyl chains in cellular TG (3T3-L1 fat cells; [5]): 3.28 ± 0.02%
- 14:1 acyl chains in cellular TG (3T3-L1 fat cells; [5]): 5.48 ± 0.03%
- 15:0 acyl chains in cellular TG (3T3-L1 fat cells; [5]): 1.36 ± 0.02%
- 15:1 acyl chains in cellular TG (3T3-L1 fat cells; [5]): 1.24 ± 0.09%
- 16:0 acyl chains in cellular TG (3T3-L1 fat cells; [5]): 23.65 ± 0.03%
- 16:1 acyl chains in cellular TG (3T3-L1 fat cells; [5]): 38.65 ± 0.2%
- 17:0 acyl chains in cellular TG (3T3-L1 fat cells; [5]): 0.75 ± 0.03%
- 17:1 acyl chains in cellular TG (3T3-L1 fat cells; [5]): 3.98 ± 0.07%
- 18:0 acyl chains in cellular TG (3T3-L1 fat cells; [5]): 0.41 ± 0.02%
- 18:1 n9 acyl chains in cellular TG (3T3-L1 fat cells; [5]): 19.71 ± 0.02%
- 18:1 n11 acyl chains in cellular TG (3T3-L1 fat cells; [5]): 1.51 ± 0.12%
- 8:0 acyl chains in cellular TG (3T3-L1 fat cells; [6]): 0%
- 14:0 acyl chains in cellular TG (3T3-L1 fat cells; [7]): 2.84 ± 0.09%
- 14:1 acyl chains in cellular TG (3T3-L1 fat cells; [7]): 4.75 ± 0.08%
- 15:1 acyl chains in cellular TG (3T3-L1 fat cells; [7]): 0.81 ± 0.01%
- 16:0 acyl chains in cellular TG (3T3-L1 fat cells; [7]): 20.01 ± 0.36%
- 16:1 acyl chains in cellular TG (3T3-L1 fat cells; [7]): 27.34 ± 0.29%
- 17:0 acyl chains in cellular TG (3T3-L1 fat cells; [7]): 0.82 ± 0.03%
- 17:1 acyl chains in cellular TG (3T3-L1 fat cells; [7]): 3.31 ± 0.26%
- 18:0 acyl chains in cellular TG (3T3-L1 fat cells; [7]): 0.38 ± 0.04%
- 18:1 n9 acyl chains in cellular TG (3T3-L1 fat cells; [7]): 36.4 ± 0.4%
- 18:1 n11 acyl chains in cellular TG (3T3-L1 fat cells; [7]): 1.35 ± 0.07%
- 8:0 acyl chains in cellular TG (3T3-L1 fat cells; [8]): 0%
- Decline of proportion of oleate in cellular TG (3T3-L1 fat cells; after 96-h incubation with DMEM, GLC): 50%
- [1-13C]fatty acid remaining esterified in TG (3T3-L1 fat cells; [9]): over 99±3.3%
